Consider one compound from paper PMC12717121, “ABA-independent PP2C-binding in PYLs traces to bacterial origins and persists in land plants” (Nature Communications, 2025).

In one assay the target is T1, ABI1 (AtABI1) (Arabidopsis thaliana, UniProt P49597).
T1 construct: GST-ABI1 (pGEX-6P-1), E. coli BL21(DE3)
T1 sequence (P49597 1-434): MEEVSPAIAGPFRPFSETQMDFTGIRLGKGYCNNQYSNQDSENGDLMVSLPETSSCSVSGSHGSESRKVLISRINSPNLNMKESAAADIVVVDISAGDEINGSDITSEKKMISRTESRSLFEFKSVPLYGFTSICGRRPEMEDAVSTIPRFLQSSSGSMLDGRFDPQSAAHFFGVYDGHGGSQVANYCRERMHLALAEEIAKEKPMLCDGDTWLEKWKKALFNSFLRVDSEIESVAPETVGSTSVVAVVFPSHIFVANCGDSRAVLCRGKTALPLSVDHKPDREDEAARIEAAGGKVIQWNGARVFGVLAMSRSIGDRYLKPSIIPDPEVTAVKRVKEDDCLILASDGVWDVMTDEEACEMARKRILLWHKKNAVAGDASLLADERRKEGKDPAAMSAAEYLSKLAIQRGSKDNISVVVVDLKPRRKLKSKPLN
Put plainly: phosphatase assay, A405. The class given is biochemical. Conditions: 50 mM pNPP, 0.5 μM PP2C, 33 mM Tris-OAc pH 7.9, 25 mM Mg(OAc)2.

A further assay concerns the target T2, PP2CA (AtPP2CA) (Arabidopsis thaliana, UniProt P49598).
T2 construct: GST-PP2CA (pGEX-6P-1), E. coli BL21(DE3)
T2 sequence (P49598 1-399): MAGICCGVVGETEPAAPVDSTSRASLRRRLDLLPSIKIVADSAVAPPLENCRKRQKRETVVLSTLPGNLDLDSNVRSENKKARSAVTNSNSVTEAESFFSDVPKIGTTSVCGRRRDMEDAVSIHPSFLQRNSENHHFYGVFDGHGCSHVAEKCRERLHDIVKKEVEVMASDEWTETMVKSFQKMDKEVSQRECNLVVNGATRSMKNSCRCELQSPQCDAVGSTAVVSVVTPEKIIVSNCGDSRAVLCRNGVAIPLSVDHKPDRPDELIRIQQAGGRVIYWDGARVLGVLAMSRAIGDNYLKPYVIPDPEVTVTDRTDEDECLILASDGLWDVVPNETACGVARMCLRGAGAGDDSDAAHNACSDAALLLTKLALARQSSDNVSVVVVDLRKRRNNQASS
Put plainly: phosphatase assay, A405. It is filed as biochemical. Conditions: 50 mM pNPP, 0.5 μM PP2C, 33 mM Tris-OAc pH 7.9, 25 mM Mg(OAc)2.

On to `O=[N+]([O-])c1ccc(OP(=O)(O)O)cc1` [pNPP], for which the “phosphatase assay, A405” value on ABI1 (AtABI1) and at PP2CA (AtPP2CA) was “Initial reaction velocities for GST-PP2Cs were measured using the synthetic phosphatase substrate pNPP” each time.
